Experimental findings from ChEMBL document CHEMBL4665648, “Potent and selective inhibitors of receptor-interacting protein kinase 1 that lack an aromatic back pocket group” (Bioorg Med Chem Lett, 2019) are described below.

For assay [1], the target named is Aurora kinase B (Homo sapiens) (UniProt Q96GD4). Description: Inhibition of recombinant human His-tagged full length Aurora B expressed in baculovirus expression system using Ser/Thr 01 as substrate at 10 uM incubated for 60 mins by Z'-Lyte assay relative to control.
The target of assay [2] is PAS domain-containing serine/threonine-protein kinase (Homo sapiens) (UniProt Q96RG2). Description: Inhibition of recombinant human GST-tagged PASK (879 to 1323 residues) expressed in baculovirus expression system using Ser/Thr 07 as substrate at 10 uM incubated for 60 mins by Z'-lyte assay relative to control.
In assay [3] the target is Calcium/calmodulin-dependent protein kinase kinase 1 (Homo sapiens) (UniProt Q8N5S9). As to the kind of experiment: Inhibition of tracer 236 binding to recombinant human GST-tagged full length CAMKK1 expressed in Escherichia coli expression system at 10 uM incubated for 60 mins by Lanthascreen assay relative to control. A general note: In TR-FRET formats the signal depends on donor and acceptor labels being close together.

In assay [4] the target is Myotonin-protein kinase (Homo sapiens) (UniProt Q09013). As to the kind of experiment: Inhibition of tracer 236 binding to recombinant human GST-tagged full length DMPK expressed in baculovirus expression system at 10 uM incubated for 60 mins by Lanthascreen assay relative to control.
Assay [5] addresses Serine/threonine-protein kinase 16 (Homo sapiens) (UniProt O75716). As to the kind of experiment: Inhibition of tracer 236 binding to recombinant human His-tagged full length STK16 expressed in baculovirus expression system at 10 uM incubated for 60 mins by Lanthascreen assay relative to control.
In assay [6] the target is Serine/threonine-protein kinase BRSK1 (Homo sapiens) (UniProt Q8TDC3). Description: Inhibition of recombinant human GST-tagged full length BrSK1 expressed in baculovirus expression system using Ser/Thr 21 as substrate at 10 uM incubated for 60 mins by Z'-Lyte assay relative to control.
The target of assay [7] is Hepatocyte growth factor receptor (Homo sapiens) (UniProt P08581). Description: Inhibition of recombinant human His-tagged MET (956 to 1390 residues) expressed in baculovirus expression system using Tyr 06 as substrate at 10 uM incubated for 60 mins by Z'-lyte assay relative to control.
Assay [8] addresses SRSF protein kinase 3 (Homo sapiens) (UniProt Q9UPE1). As to the kind of experiment: Inhibition of recombinant human GST-tagged full length MSSK1 expressed in baculovirus expression system using Ser/Thr 13 as substrate at 10 uM incubated for 60 mins by Z'-lyte assay relative to control.
Assay [9] concerns the target ALK tyrosine kinase receptor (Homo sapiens) (UniProt Q9UM73). As to the kind of experiment: Inhibition of recombinant human GST-tagged […] (1058 to 1620 residues) expressed in baculovirus expression system using Tyr 01 as substrate at 10 uM incubated for 60 mins by Z'-Lyte assay relative to control.
The target in assay [10] is CDK8/Cyclin C (Homo sapiens) (UniProt P49336+P24863). As to the kind of experiment: Inhibition of tracer 236 binding to recombinant human His-tagged full length CDK8/Cyclin C expressed in baculovirus expression system at 10 uM incubated for 60 mins by Lanthascreen assay relative to control.
Assay [11] concerns the target Fibroblast growth factor receptor 3 (Homo sapiens) (UniProt P22607). Description: Inhibition of recombinant human His-tagged FGFR3 (399 to 806 residues) expressed in baculovirus expression system using Tyr 04 as substrate at 10 uM incubated for 60 mins by Z'-Lyte assay relative to control.
The target of assay [12] is Muscle, skeletal receptor tyrosine-protein kinase (Homo sapiens) (UniProt O15146). Description: Inhibition of recombinant human GST-tagged MUSK (519 to 869 residues) expressed in baculovirus expression system using Tyr 04 as substrate at 10 uM incubated for 60 mins by Z'-lyte assay relative to control.
The target in assay [13] is Cyclin-dependent kinase 7/ cyclin H (Homo sapiens) (UniProt P51946+P50613). Description: Inhibition of recombinant human His-tagged full length CDK7/Cyclin H expressed in baculovirus expression system using CDK7/9tide as substrate at 10 uM incubated for 60 mins by Adapta assay relative to control.
Assay [14] concerns the target Serine/threonine-protein kinase Nek9 (Homo sapiens) (UniProt Q8TD19). Description: Inhibition of recombinant human GST-tagged NEK9 (347 to 732 residues) expressed in baculovirus expression system using Ser/Thr 07 as substrate at 10 uM incubated for 60 mins by Z'-lyte assay relative to control.
In assay [15] the target is Activin receptor type-2B (Homo sapiens) (UniProt Q13705). Description: Inhibition of tracer 178 binding to recombinant human GST-tagged ACVR2B (185 to 488 residues) expressed in baculovirus expression system at 10 uM incubated for 60 mins by Lanthascreen assay relative to control.
Assay [16] has as its target Calcium/calmodulin-dependent protein kinase kinase 2 (Homo sapiens) (UniProt Q96RR4). As to the kind of experiment: Inhibition of tracer 236 binding to recombinant human GST-tagged full length CAMKK2 expressed in baculovirus expression system at 10 uM incubated for 60 mins by Lanthascreen assay relative to control.
The target of assay [17] is Serine/threonine-protein kinase TAO2 (Homo sapiens) (UniProt Q9UL54). As to the kind of experiment: Inhibition of recombinant human GST-tagged TAO2 (1 to 314 residues) expressed in baculovirus expression system using Ser/Thr 07 as substrate at 10 uM incubated for 60 mins by Z'-Lyte assay relative to control.
For assay [18], the target named is Megakaryocyte-associated tyrosine-protein kinase (Homo sapiens) (UniProt P42679). Description: Inhibition of recombinant human His-tagged full length Hyl expressed in Escherichia coli expression system using Tyr 01 as substrate at 10 uM incubated for 60 mins by Z'-Lyte assay relative to control.
In assay [19] the target is Protein kinase C eta type (Homo sapiens) (UniProt P24723). Description: Inhibition of recombinant human His-tagged full length PKCeta expressed in baculovirus expression system using Ser/Thr 07 as substrate at 10 uM incubated for 60 mins by Z'-lyte assay relative to control.
Assay [20] deals with Ephrin type-A receptor 7 (Homo sapiens) (UniProt Q15375). As to the kind of experiment: Inhibition of tracer 236 binding to recombinant human GST-tagged EPHA7 (579 to 998 residues) expressed in baculovirus expression system at 10 uM incubated for 60 mins by Lanthascreen assay relative to control.
Assay [21] addresses Platelet-derived growth factor receptor alpha (Homo sapiens) (UniProt P16234). As to the kind of experiment: Inhibition of recombinant human GST-tagged PDGFRalpha (550 to 1089 residues) expressed in baculovirus expression system using Tyr 04 as substrate at 10 uM incubated for 60 mins by Z'-lyte assay relative to control.
Assay [22] concerns the target Serine/threonine-protein kinase TBK1 (Homo sapiens) (UniProt Q9UHD2). Description: Inhibition of recombinant human GST-tagged full length TBK1 expressed in insect expression system using Ser/Thr 05 as substrate at 10 uM incubated for 60 mins by Z'-Lyte assay relative to control.
In assay [23] the target is Protein kinase C zeta type (Homo sapiens) (UniProt Q05513). As to the kind of experiment: Inhibition of recombinant human untagged full length PKCzeta expressed in baculovirus expression system using Ser/Thr 07 as substrate at 10 uM incubated for 60 mins by Z'-lyte assay relative to control.
The target of assay [24] is Proto-oncogene tyrosine-protein kinase Src (Homo sapiens) (UniProt P12931). As to the kind of experiment: Inhibition of recombinant human C-terminal His-tagged full length SRC expressed in baculovirus expression system using Tyr 02 as substrate at 10 uM incubated for 60 mins by Z'-Lyte assay relative to control.

What is called inhibition is the drop in the measured response relative to a control, in per cent.

Chain of ALK tyrosine kinase receptor (Homo sapiens) (Q9UM73 19-1620 limits assumed): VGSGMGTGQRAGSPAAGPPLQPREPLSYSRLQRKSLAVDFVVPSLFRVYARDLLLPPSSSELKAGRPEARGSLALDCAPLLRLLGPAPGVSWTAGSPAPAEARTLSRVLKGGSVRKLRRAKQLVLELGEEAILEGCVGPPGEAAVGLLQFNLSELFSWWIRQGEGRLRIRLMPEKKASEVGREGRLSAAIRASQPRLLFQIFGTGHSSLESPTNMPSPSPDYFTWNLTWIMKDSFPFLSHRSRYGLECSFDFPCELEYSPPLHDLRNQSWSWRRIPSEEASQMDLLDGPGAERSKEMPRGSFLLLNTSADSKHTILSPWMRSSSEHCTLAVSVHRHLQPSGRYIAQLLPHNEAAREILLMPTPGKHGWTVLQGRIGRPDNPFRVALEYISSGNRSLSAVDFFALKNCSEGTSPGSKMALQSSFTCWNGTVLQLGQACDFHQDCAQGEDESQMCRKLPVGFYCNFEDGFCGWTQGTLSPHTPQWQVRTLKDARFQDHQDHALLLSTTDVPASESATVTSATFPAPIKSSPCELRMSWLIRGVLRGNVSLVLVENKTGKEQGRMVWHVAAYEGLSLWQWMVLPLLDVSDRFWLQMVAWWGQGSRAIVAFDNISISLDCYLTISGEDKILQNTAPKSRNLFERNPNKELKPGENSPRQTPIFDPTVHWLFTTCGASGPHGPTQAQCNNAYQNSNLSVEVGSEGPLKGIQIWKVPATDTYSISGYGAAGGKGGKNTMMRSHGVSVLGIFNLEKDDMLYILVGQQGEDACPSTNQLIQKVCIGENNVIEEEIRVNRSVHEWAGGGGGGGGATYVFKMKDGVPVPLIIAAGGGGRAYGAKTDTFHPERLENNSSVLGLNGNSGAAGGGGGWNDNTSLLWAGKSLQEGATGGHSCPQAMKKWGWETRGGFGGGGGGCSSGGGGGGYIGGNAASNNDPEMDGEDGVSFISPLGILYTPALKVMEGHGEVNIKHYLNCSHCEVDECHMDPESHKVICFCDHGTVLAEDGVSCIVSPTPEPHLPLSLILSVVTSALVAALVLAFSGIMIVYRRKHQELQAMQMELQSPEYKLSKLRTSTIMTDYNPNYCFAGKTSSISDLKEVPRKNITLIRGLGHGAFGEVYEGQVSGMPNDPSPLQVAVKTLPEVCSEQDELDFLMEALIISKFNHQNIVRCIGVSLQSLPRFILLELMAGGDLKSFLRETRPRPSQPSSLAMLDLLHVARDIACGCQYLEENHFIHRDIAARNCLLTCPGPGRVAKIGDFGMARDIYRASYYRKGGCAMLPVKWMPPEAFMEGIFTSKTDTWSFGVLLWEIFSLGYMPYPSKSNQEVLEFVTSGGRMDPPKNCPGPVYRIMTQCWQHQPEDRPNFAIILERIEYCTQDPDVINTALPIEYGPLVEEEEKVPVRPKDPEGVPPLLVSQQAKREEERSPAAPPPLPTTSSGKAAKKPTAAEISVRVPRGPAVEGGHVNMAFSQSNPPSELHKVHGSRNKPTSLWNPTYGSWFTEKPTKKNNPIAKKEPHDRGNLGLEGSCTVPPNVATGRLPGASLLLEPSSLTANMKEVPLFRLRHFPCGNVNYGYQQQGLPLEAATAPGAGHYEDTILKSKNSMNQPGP
Chain of Serine/threonine-protein kinase TAO2 (Homo sapiens) (Q9UL54 whole entry, the tested form may be a part): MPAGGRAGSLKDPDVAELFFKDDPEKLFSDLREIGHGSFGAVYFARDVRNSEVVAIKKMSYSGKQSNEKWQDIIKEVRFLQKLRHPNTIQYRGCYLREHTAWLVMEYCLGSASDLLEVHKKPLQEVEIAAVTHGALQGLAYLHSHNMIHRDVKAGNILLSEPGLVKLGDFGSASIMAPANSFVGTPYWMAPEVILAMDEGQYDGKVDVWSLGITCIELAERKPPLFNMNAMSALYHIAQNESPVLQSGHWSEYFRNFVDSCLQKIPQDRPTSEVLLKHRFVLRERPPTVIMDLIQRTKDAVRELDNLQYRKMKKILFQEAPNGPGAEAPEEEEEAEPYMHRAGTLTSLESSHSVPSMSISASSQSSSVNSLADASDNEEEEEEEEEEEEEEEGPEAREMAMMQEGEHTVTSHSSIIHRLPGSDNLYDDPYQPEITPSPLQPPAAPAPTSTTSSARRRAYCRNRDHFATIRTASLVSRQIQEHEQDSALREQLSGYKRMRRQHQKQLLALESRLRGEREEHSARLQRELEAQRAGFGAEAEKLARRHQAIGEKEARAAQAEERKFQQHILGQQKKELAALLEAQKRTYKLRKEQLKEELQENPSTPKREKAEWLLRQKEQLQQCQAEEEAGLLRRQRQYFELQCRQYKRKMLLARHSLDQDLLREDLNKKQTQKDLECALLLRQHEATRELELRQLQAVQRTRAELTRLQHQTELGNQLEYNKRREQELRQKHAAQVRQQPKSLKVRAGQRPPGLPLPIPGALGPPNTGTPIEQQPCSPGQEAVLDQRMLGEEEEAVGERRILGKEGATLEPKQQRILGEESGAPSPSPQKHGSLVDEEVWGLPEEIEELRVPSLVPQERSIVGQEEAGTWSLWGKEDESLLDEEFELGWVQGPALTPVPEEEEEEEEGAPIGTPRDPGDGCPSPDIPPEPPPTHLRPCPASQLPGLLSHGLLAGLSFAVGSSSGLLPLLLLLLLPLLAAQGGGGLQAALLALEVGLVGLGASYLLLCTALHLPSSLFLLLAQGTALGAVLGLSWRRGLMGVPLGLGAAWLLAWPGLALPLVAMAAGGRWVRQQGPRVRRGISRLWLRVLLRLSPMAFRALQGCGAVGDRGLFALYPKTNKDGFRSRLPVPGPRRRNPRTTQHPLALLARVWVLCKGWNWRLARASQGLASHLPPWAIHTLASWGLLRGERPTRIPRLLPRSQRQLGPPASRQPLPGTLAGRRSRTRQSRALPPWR
Chain of Proto-oncogene tyrosine-protein kinase Src (Homo sapiens) (P12931 2-536 limits assumed): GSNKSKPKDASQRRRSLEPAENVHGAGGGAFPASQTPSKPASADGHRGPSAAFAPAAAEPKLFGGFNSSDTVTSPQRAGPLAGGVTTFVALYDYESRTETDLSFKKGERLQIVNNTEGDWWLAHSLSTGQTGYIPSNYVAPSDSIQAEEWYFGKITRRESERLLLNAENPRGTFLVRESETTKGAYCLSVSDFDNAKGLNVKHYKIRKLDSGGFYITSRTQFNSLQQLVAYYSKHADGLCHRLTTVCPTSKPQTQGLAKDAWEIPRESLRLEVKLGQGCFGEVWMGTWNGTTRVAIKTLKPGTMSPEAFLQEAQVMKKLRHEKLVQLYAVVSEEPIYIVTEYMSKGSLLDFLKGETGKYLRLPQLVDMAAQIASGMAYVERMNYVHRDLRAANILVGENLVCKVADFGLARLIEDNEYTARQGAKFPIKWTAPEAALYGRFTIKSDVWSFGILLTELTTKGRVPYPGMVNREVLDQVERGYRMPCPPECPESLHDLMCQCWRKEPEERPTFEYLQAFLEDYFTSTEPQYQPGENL
Chain of Activin receptor type-2B (Homo sapiens) (Q13705 whole entry, the tested form may be a part): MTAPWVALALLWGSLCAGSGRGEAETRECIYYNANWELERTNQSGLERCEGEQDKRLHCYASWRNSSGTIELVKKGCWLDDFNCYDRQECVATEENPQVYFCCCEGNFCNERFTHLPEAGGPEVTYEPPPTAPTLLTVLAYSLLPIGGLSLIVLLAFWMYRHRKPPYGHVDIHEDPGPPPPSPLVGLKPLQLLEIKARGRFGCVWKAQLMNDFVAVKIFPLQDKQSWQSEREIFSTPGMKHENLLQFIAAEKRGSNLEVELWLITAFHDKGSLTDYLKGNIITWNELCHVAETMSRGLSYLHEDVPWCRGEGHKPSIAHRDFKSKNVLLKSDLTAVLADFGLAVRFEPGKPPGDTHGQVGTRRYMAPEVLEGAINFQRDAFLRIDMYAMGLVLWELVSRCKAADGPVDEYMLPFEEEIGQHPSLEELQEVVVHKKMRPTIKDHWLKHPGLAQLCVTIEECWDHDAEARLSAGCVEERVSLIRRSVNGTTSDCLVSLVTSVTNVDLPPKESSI
Chain of Fibroblast growth factor receptor 3 (Homo sapiens) (P22607 23-806 limits assumed): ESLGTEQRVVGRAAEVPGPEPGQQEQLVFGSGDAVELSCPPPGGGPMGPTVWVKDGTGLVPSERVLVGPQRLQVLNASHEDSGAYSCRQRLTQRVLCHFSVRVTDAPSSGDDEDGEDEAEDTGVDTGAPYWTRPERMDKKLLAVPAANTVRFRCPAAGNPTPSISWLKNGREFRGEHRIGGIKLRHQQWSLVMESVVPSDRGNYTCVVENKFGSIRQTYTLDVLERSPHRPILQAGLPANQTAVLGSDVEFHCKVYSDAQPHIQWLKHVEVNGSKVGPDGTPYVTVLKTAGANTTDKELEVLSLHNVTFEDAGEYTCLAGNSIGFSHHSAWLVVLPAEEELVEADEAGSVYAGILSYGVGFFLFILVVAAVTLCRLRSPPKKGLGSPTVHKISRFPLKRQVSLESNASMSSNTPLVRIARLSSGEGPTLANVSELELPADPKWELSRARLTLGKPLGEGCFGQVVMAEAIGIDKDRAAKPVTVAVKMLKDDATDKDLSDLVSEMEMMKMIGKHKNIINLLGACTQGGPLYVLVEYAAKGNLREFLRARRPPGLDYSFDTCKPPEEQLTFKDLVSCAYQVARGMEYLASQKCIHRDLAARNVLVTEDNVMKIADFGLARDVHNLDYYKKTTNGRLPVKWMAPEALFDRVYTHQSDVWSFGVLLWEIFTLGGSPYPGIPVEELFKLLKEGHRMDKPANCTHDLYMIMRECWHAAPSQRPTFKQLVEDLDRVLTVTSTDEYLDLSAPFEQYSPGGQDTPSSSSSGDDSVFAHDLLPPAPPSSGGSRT
Chain of Serine/threonine-protein kinase 16 (Homo sapiens) (O75716 whole entry): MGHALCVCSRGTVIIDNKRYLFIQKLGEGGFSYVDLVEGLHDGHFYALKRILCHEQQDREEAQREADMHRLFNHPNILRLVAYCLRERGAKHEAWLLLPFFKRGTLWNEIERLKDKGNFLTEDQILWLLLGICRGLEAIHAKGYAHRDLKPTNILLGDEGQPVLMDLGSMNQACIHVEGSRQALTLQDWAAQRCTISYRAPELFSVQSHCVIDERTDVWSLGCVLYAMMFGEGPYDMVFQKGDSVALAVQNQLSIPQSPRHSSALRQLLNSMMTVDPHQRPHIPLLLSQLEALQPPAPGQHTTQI

On to `CN1C(=O)[C@@H](NC(=O)c2n[nH]c3ncc(C(F)(F)C(F)(F)F)cc23)COc2ccccc21`, for which the inhibition in assay [1] was 2.5%; in assay [2], 2%; in assay [3] it was -5%; in assay [4], -1%; in assay [5] it was 3%; in assay [6] it was 6%. Moreover, the inhibition in assay [7] was 4.5%; in assay [8] it was 6.5%; in assay [9], 3%; in assay [10], 14%; in assay [11] it was 0.5%; in assay [12], 17%. In addition, the inhibition in [13] was 14.5%; in assay [14], 3%; in [15] it was -0.5%; in assay [16] it was 2%; in assay [17], 5%; in [18], 3.5%. Further, the inhibition was found to be 5% in [19]; 4.5% in [20]; 2.5% in assay [21]; 1.5% in assay [22]; 5.5% in [23]; 2% in [24].
